Patent US20230277630A1, “METHODS AND COMPOSITIONS FOR TREATING AMYOTROPHIC LATERAL SCLEROSIS” (Amylyx Pharmaceuticals, Inc., priority 2022, published 2023)
Where two headings read alike, the source gives them in different places.

Assays:
BCRP = target: T1, BCRP (Homo sapiens, UniProt Q9UNQ0); experiment: BCRP IC50 assessment, bidirectional cladribine transport in BCRP-MDCK cells
T1 sequence (Q9UNQ0 1-655): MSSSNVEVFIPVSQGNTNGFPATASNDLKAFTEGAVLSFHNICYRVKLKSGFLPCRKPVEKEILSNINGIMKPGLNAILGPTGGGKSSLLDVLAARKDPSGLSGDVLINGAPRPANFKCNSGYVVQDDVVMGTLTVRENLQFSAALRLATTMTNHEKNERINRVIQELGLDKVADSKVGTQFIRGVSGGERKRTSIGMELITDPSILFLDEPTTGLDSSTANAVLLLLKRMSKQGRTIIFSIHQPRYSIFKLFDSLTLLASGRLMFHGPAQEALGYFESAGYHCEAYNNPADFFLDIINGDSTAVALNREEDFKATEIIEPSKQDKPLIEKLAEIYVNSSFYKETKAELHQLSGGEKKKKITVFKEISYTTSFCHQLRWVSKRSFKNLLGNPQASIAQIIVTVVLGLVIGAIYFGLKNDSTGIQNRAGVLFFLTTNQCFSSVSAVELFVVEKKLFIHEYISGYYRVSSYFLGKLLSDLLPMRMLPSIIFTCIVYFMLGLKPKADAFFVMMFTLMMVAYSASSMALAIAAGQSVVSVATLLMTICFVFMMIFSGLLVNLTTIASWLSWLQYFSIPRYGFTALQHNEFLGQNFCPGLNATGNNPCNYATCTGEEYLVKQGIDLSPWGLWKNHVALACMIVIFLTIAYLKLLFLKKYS
Procedure: After 30 minutes, the pre-incubation solution was aspirated.

hrCYP2B6 = target: T2, hrCYP2B6 (Homo sapiens, UniProt P20813); settings: recombinant enzyme, 5 μM, pH 7.4
T2 sequence (P20813 1-491): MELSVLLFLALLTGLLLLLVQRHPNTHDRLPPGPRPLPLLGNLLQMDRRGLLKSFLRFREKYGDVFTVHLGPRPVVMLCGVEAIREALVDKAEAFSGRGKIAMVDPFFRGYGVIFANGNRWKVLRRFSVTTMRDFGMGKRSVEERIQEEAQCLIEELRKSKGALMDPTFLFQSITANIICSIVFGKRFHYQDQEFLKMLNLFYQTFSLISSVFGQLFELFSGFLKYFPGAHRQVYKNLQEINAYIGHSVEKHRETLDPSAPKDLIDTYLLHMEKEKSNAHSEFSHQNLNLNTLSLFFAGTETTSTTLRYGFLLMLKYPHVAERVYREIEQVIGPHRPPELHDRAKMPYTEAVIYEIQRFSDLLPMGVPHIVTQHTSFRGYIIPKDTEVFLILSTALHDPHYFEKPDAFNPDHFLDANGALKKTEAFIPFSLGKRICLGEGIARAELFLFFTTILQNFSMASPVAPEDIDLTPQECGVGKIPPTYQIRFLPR
Procedure: (§1) The reaction was initiated by the addition of NADPH, followed by incubation at 37° C.
(§2) % Remaining of TA=100×At/A0
(§3) Where, At is the peak area ratio of TA to internal standard (IS) at time t, A0 is the average peak area ratio of TA to IS at time zero.

hrCYP2C19 = hrCYP2C19 (Homo sapiens, UniProt P33261); settings: recombinant enzyme, 5 μM, pH 7.4
Chain of hrCYP2C19 (P33261 whole entry): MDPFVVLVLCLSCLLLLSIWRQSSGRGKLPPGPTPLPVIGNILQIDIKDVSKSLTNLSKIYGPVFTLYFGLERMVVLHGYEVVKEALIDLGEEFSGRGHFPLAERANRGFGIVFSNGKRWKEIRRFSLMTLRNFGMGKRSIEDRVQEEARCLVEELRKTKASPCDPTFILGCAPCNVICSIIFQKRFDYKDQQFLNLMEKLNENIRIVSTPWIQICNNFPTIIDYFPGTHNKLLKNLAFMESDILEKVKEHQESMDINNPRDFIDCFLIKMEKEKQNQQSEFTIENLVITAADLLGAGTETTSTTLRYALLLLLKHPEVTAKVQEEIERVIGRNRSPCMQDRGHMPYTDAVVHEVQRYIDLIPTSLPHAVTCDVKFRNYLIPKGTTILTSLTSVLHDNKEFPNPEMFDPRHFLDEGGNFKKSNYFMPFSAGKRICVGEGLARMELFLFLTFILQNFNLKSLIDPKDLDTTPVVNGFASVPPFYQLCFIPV
Procedure: as §1, §2, §3

hrCYP3A4 = hrCYP3A4 (Homo sapiens, UniProt P08684); settings: recombinant enzyme, 5 μM, pH 7.4
Chain of hrCYP3A4 (P08684 whole entry): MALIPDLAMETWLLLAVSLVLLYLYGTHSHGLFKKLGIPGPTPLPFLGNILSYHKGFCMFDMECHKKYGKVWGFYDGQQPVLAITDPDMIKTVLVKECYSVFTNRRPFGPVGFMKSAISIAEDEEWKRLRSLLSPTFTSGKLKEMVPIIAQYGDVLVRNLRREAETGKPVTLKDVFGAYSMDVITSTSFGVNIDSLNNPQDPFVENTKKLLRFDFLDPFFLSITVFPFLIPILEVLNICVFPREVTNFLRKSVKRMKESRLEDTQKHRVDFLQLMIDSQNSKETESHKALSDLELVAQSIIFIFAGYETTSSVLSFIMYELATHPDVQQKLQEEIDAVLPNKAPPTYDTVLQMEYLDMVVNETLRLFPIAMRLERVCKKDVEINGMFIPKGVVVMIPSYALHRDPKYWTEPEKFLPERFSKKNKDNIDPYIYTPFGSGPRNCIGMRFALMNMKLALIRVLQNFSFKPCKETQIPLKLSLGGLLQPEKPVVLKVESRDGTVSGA
Procedure: as §1, §2, §3

hrCYP1A2 = target: T3, hrCYP1A2 (Homo sapiens, UniProt P05177); settings: recombinant enzyme, 5 μM, pH 7.4
T3 sequence (P05177 1-516): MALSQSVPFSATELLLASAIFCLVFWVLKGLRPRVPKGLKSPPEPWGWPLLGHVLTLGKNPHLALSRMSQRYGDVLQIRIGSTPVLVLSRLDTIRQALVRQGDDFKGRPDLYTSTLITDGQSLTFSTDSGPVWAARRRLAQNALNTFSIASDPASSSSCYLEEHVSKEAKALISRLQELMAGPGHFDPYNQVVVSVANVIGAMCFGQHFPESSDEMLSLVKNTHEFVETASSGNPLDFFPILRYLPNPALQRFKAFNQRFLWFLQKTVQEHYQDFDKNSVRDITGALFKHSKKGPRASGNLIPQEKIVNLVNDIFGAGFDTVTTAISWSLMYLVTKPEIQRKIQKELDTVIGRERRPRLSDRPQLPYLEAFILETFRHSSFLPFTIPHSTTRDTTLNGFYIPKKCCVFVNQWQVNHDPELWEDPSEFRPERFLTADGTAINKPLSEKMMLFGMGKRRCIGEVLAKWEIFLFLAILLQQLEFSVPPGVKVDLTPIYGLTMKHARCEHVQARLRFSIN
Procedure: as §1, §2, §3

hrCYP2C8 = target: T4, hrCYP2C8 (Homo sapiens, UniProt P10632); settings: recombinant enzyme, 5 μM, pH 7.4
T4 sequence (P10632 1-490): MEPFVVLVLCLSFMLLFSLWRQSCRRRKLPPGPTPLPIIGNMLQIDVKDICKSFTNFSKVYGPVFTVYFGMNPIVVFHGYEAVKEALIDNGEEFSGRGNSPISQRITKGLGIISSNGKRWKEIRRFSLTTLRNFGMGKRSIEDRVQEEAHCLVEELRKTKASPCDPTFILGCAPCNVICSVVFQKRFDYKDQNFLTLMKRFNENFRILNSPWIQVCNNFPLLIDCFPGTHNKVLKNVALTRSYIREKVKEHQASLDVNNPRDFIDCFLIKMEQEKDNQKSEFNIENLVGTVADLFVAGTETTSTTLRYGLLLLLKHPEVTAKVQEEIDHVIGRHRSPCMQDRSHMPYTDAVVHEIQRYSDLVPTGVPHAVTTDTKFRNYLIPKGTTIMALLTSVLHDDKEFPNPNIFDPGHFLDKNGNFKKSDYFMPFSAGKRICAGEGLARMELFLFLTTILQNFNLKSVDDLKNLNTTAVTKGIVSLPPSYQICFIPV
Procedure: as §1, §2, §3

P-gp = P-gp (Homo sapiens, UniProt P08183); experiment: P-gp IC50 assessment, bidirectional digoxin transport in MDR1-MDCK cells
Chain of P-gp (P08183 whole entry): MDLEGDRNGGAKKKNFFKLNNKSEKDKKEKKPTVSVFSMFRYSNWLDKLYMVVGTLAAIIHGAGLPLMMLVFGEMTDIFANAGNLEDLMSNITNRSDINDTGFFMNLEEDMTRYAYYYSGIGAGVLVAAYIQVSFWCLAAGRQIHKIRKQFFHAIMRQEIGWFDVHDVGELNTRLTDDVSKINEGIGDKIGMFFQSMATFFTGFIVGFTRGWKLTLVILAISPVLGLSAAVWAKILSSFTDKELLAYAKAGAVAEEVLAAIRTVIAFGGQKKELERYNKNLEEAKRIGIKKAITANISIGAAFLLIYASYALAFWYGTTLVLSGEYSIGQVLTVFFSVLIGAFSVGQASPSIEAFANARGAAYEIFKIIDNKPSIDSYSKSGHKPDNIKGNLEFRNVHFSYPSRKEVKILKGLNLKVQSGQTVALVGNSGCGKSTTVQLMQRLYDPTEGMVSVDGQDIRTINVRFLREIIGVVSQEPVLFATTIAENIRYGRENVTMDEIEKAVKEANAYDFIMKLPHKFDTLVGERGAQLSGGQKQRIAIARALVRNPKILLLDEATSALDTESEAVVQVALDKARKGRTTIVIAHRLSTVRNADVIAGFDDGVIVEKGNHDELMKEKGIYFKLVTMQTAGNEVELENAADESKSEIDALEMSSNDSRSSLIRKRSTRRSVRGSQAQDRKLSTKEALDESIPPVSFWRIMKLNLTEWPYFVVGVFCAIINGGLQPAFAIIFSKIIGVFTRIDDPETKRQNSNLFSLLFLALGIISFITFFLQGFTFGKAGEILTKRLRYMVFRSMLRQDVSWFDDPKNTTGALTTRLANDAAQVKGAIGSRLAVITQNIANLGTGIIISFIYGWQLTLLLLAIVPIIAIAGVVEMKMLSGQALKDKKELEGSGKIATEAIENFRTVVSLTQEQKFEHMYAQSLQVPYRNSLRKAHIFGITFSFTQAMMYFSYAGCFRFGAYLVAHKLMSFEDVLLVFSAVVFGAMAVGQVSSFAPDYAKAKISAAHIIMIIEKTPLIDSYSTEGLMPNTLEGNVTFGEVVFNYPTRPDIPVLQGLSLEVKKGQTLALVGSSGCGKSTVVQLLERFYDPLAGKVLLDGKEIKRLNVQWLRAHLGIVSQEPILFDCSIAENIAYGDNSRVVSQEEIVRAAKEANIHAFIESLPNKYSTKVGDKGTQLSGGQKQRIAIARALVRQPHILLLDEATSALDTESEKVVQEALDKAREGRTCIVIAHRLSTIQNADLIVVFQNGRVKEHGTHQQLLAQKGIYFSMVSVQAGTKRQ

O=C(O)CCCc1ccccc1 [PB, sodium phenylbutyrate]
IC50 (BCRP): 2390 to 7160 µM | % remained after 60 minutes of incubation (hrCYP2B6; 1 h): greater than 90% | % Remaining of TA (hrCYP2C19; 0 h): 100% | % Remaining of TA (hrCYP2C19; 5 min): 97.4% | % Remaining of TA (hrCYP2C19; 10 min): 101% | % Remaining of TA (hrCYP2C19; 20 min): 99.7% | % Remaining of TA (hrCYP2C19; 0.5 h): 97.5% | % Remaining of TA (hrCYP2C19; 1 h): 99.8% | % remained after 60 minutes of incubation (hrCYP2C19; 1 h): greater than 90% | % Remaining of TA (hrCYP3A4; 0 h): 100% | % Remaining of TA (hrCYP3A4; 5 min): 100% | % Remaining of TA (hrCYP3A4; 10 min): 97.9% | % Remaining of TA (hrCYP3A4; 20 min): 100% | % Remaining of TA (hrCYP3A4; 0.5 h): 98.1% | % remained after 60 minutes of incubation (hrCYP3A4; 1 h): greater than 90% | % Remaining of TA (hrCYP1A2; 0 h): 100% | % Remaining of TA (hrCYP1A2; 5 min): 98.3% | % Remaining of TA (hrCYP1A2; 20 min): 99.9% | % Remaining of TA (hrCYP1A2; 0.5 h): 101% | % Remaining of TA (hrCYP1A2; 1 h): 95.1% | % remained after 60 minutes of incubation (hrCYP1A2; 1 h): greater than 90% | % remained after 60 minutes of incubation (hrCYP2C8; 1 h): greater than 90% | IC50 (P-gp): 7160 to 21500 µM

C[C@H](CCC(=O)NCCS(=O)(=O)O)[C@H]1CC[C@H]2[C@@H]3[C@@H](O)C[C@@H]4C[C@H](O)CC[C@]4(C)[C@H]3CC[C@]12C [TUDCA, tauroursodeoxycholic acid]
IC50 (BCRP): 296 to 889 µM | % Remaining of TA (hrCYP2B6; 0 h): 100% | % Remaining of TA (hrCYP2B6; 5 min): 97.6% | % Remaining of TA (hrCYP2B6; 10 min): 97.0% | % Remaining of TA (hrCYP2B6; 20 min): 99.3% | % Remaining of TA (hrCYP2B6; 0.5 h): 99.7% | % Remaining of TA (hrCYP2B6; 1 h): 101% | % remained after 60 minutes of incubation (hrCYP2B6; 1 h): greater than 90% | % Remaining of TA (hrCYP2C19; 0 h): 100% | % Remaining of TA (hrCYP2C19; 5 min): 96.1% | % Remaining of TA (hrCYP2C19; 10 min): 98.7% | % Remaining of TA (hrCYP2C19; 20 min): 94.8% | % Remaining of TA (hrCYP2C19; 0.5 h): 95.1% | % remained after 60 minutes of incubation (hrCYP2C19; 1 h): greater than 90% | % Remaining of TA (hrCYP3A4; 0 h): 100% | % Remaining of TA (hrCYP3A4; 5 min): 97.1% | % Remaining of TA (hrCYP3A4; 10 min): 92.1% | % Remaining of TA (hrCYP3A4; 20 min): 91.4% | % Remaining of TA (hrCYP3A4; 0.5 h): 90.9% | % Remaining of TA (hrCYP3A4; 1 h): 91.1% | % remained after 60 minutes of incubation (hrCYP3A4; 1 h): greater than 90% | % Remaining of TA (hrCYP1A2; 0 h): 100% | % Remaining of TA (hrCYP1A2; 5 min): 98.0% | % Remaining of TA (hrCYP1A2; 10 min): 101% | % Remaining of TA (hrCYP1A2; 20 min): 99.9% | % Remaining of TA (hrCYP1A2; 0.5 h): 103% | % Remaining of TA (hrCYP1A2; 1 h): 90.5% | % remained after 60 minutes of incubation (hrCYP1A2; 1 h): greater than 90% | % Remaining of TA (hrCYP2C8; 0 h): 100% | % Remaining of TA (hrCYP2C8; 10 min): 99.3% | % Remaining of TA (hrCYP2C8; 20 min): 101% | % Remaining of TA (hrCYP2C8; 0.5 h): 101% | % Remaining of TA (hrCYP2C8; 1 h): 99.8% | % remained after 60 minutes of incubation (hrCYP2C8; 1 h): greater than 90% | IC50 (P-gp): 889 to 2670 µM
